Blank lines part the entries; values can stand above or below the molecule they belong to.
Legend:
[1] = target: Amyloid-beta precursor protein (Homo sapiens, UniProt P05067); assay: Inhibition of amyloid beta 42 (unknown origin) self aggregation by Thioflavin T-based fluorometric assay
[2] = Induction of NQO1 expression in mouse Hepa1c1c7 cells; type: functional
BV-2 = assay: Antiinflammatory activity against mouse BV-2 cells assessed as reduction in LPS-induced NO production at 20 uM incubated for 24 hrs by Griess reagent based assay relative to control; type: functional; design: scale not given: the % may be the effect or the level left
Keap1/Nrf2 [3] = target: Keap1/Nrf2 (Homo sapiens, UniProt Q14145); assay: Inhibition of human Keap1 KELCH domain (321 to 609 residues) expressed in Escherichia coli BL21 DE3 pLysS cells/Nrf2 (unknown origin) protein-protein interaction preincubated with Keap1 for 1 hr followed by Nrf2 addition and measured after 1 hr by fluorescence polarization assay
HepG2-ARE-C8 = assay: Activation of Nrf2-ARE pathway in human HepG2-ARE-C8 cells measured for 24 hrs by ARE-luciferase assay; type: cell-based; conditions: filed as activator
Keap1/Nrf2 [4] = target: T1, Keap1/Nrf2 (Homo sapiens, UniProt Q14145+Q16236); assay: Binding affinity to human Keap1-Nrf2 protein-protein interaction assessed as dissociation constant; type: protein assay
Keap1/Nrf2 [5] = target: T1, Keap1/Nrf2; assay: Binding affinity to human Keap1-Nrf2 protein-protein interaction assessed as inhibition constant incubated for 60 mins by fluorescent polarization assay
[6] = target: T2, Nuclear factor erythroid 2-related factor 2 (Mus musculus) (UniProt Q60795); assay: Activation of Nrf2 pathway in mouse BV-2 cells assessed as fold increase in HO-1 level at 5 uM measured after 3 hrs by Western blot analysis; type: cell-based; conditions: filed as activator
T2 sequence (whole entry): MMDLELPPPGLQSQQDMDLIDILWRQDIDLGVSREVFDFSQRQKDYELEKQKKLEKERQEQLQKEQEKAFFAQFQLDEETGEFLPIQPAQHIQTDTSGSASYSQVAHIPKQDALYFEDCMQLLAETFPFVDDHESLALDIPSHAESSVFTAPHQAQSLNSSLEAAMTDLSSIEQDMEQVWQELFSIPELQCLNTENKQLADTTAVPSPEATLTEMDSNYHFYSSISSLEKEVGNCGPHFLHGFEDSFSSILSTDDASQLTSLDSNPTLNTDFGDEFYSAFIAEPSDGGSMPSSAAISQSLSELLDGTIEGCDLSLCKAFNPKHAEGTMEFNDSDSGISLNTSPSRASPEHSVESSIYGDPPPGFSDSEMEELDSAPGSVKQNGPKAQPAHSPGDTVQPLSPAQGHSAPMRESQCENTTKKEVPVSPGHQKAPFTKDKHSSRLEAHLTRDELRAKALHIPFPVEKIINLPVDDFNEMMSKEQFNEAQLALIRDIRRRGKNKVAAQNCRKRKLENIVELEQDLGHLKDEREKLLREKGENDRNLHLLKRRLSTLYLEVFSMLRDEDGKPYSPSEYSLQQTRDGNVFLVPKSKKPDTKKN

[7] = target: T2, Nuclear factor erythroid 2-related factor 2 (Mus musculus); assay: Activation of Nrf2 in mouse BV-2 cells assessed as increase in GCLM mRNA expression by measuring fold change at 5 uM incubated for 3 hrs by qRT-PCR analysis; type: cell-based; conditions: filed as activator
[8] = target: T2, Nuclear factor erythroid 2-related factor 2 (Mus musculus); assay: Activation of Nrf2 in mouse BV-2 cells assessed as increase in GCLC mRNA expression by measuring fold change at 5 uM measured for 3 hrs by qRT-PCR analysis; type: cell-based; conditions: filed as activator

T1 sequence (Q16236 whole entry): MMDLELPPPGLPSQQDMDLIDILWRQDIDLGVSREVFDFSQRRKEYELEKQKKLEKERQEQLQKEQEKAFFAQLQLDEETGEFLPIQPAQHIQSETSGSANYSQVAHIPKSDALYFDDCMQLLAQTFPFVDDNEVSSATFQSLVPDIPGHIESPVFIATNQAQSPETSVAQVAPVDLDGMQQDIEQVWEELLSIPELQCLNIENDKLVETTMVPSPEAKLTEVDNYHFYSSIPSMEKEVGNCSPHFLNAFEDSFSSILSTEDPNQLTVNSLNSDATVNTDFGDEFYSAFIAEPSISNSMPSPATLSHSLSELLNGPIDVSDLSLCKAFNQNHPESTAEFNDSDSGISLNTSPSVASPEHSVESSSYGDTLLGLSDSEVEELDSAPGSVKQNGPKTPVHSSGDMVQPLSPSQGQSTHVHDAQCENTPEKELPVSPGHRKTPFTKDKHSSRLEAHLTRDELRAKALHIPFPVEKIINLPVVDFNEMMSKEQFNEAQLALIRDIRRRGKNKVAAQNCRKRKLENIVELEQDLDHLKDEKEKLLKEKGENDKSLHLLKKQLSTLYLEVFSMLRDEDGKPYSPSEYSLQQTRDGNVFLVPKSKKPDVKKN
T1 sequence (Q14145 whole entry): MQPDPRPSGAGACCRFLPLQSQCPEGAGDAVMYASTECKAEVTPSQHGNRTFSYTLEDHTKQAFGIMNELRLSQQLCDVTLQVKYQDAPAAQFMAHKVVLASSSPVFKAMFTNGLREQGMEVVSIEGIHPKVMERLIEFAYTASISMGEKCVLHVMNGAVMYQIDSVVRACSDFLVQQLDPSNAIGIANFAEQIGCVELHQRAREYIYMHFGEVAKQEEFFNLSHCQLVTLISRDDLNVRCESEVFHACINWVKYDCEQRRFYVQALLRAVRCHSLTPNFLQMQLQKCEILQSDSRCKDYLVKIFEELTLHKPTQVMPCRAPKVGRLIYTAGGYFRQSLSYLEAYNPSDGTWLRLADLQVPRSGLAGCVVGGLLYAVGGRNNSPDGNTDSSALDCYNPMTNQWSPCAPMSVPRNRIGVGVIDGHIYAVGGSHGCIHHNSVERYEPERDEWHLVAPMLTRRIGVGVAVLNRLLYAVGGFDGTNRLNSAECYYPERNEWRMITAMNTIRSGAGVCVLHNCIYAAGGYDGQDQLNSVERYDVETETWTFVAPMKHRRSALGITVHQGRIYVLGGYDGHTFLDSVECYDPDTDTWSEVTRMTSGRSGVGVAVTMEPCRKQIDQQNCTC
Chain of Amyloid-beta precursor protein (P05067 whole entry): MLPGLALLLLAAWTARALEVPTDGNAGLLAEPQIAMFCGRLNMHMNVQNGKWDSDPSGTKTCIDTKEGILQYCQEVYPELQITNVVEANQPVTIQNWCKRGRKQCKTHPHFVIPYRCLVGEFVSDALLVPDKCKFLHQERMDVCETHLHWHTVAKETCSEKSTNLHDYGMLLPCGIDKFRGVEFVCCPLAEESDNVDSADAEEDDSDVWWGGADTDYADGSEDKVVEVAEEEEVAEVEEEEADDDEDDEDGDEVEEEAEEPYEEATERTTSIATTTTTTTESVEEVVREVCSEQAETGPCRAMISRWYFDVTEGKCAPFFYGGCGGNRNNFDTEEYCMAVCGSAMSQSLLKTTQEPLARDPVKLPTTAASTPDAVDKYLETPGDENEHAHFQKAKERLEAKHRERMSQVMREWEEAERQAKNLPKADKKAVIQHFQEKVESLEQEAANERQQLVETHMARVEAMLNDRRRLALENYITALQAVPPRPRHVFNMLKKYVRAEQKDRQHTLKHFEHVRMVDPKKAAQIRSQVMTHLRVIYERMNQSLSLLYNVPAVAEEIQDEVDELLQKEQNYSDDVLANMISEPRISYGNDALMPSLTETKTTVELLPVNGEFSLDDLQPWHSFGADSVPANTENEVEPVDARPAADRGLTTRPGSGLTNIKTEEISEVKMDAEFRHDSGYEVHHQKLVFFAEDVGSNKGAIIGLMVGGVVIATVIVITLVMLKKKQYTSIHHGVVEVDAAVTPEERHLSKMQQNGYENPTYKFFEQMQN
Chain of Keap1/Nrf2 (Homo sapiens, UniProt Q14145) (Q16236 whole entry, the tested form may be a part): as the sequence (Q16236 whole entry) above
Chain of Keap1/Nrf2 (Homo sapiens, UniProt Q14145) (Q14145 whole entry, the tested form may be a part): as the sequence (Q14145 whole entry) above

IC50 [1]: 12.5 µM
Compound: C=CCSC(=O)/C=C/c1ccc(O)c(O)c1

Compound: O=[N+]([O-])c1ccc(Sc2nnc(COc3ccccc3)[nH]2)nc1
CD [2]: 7.5 µM

Compound: COc1ccccc1S(=O)(=O)/C=C/c1ccccc1C(F)(F)F
Activity (BV-2): 29.9%

IC50 (Keap1/Nrf2 [3]): 0.0257 µM
Compound: COc1ccc(S(=O)(=O)Nc2ccc(N(CC(N)=O)S(=O)(=O)c3ccc(OC)cc3)c3ccccc23)cc1
Activity (HepG2-ARE-C8): 1.8 nM

Compound: CC1(C)CC[C@]2(C(=O)O)CC[C@]3(C)C(C(=O)C=C4[C@@]5(C)C=CC(=O)C(C)(C)[C@@H]5CC[C@]43C)[C@@H]2C1 (some centres undefined)
CD [2]: 0.28 µM

Compound: CC1(C)CC[C@]2(C#N)CC[C@]3(C)C(C(=O)C=C4[C@@]5(C)C=C(C#N)C(=O)C(C)(C)[C@@H]5CC[C@]43C)[C@@H]2C1 (some centres undefined)
CD [2]: 0.00027 µM

Compound: O=[N+]([O-])c1ccc(Sc2nnc(COc3ccccc3)n2-c2ccccc2)nc1
CD [2]: 2.5 µM

Compound: COc1ccccc1S(=O)(=O)/C=C/c1ccccc1F
Activity (BV-2): 24%

Compound: O=[N+]([O-])c1ccc(Sc2nnc(COc3ccccc3)n2-c2ccccc2)cc1
CD [2]: 10 µM

Kd (Keap1/Nrf2 [4]): < 30 µM
Compound: [H]/N=C(\N/C(=N/[H])NCCCCCCNC(=N)NC(=N)Nc1ccc(Cl)cc1)Nc1ccc(Cl)cc1 [CHLORHEXIDINE]

Compound: COc1ccccc1S(=O)(=O)/C=C/c1ccc(Cl)cc1
Activity (BV-2): 31.5%

Compound: COc1ccccc1S(=O)(=O)/C=C/c1cccc(Cl)c1
Activity (BV-2): 32.1%

Compound: COC(=O)[C@]12CCC(C)(C)C[C@H]1C1C(=O)C=C3[C@@]4(C)C=C(C#N)C(=O)C(C)(C)[C@@H]4CC[C@@]3(C)[C@]1(C)CC2 (some centres undefined)
CD [2]: 0.001 µM

Ki (Keap1/Nrf2 [5]): 6.15 µM
Compound: O=C(NCC1CCCO1)C1CCC([N+](=O)[O-])S1 (centres undefined)

Compound: COC(=O)[C@]12CCC(C)(C)C[C@H]1C1C(=O)C=C3[C@@]4(C)C=C(C(=O)O)C(=O)C(C)(C)[C@@H]4CC[C@@]3(C)[C@]1(C)CC2 (some centres undefined)
CD [2]: 0.018 µM

Compound: O=[N+]([O-])c1ccc(Sc2nnc(Cc3ccccc3)n2-c2ccccc2)nc1
CD [2]: 0.3 µM

Compound: COc1ccccc1S(=O)(=O)/C=C/c1ccccc1Cl
Activity (BV-2): 15.2%

fold change (FC) [6]: 2.02
fold change (FC) [7]: 2.39
fold change (FC) [8]: 2.39
Compound: CC(=O)O[C@H]1CC(C)(C)C(=C=C/C(C)=C/C=C/C(C)=C/C=C/C=C(C)/C=C/C=C(\C)C(=O)C[C@@]23O[C@]2(C)C[C@@H](O)CC3(C)C)[C@](C)(O)C1

Compound: CC1(C)CC[C@]2(C(=O)O)CC[C@]3(C)C(C(=O)C=C4[C@@]5(C)C=C(C(=O)O)C(=O)C(C)(C)[C@@H]5CC[C@]43C)[C@@H]2C1 (some centres undefined)
CD [2]: 0.22 µM

Compound: Nc1ccc(Sc2nnc(COc3ccccc3)n2-c2ccccc2)nc1
CD [2]: 2.5 µM

Compound: CNC(=O)[C@]12CCC(C)(C)C[C@H]1C1C(=O)C=C3[C@@]4(C)C=C(C#N)C(=O)C(C)(C)[C@@H]4CC[C@@]3(C)[C@]1(C)CC2 (some centres undefined)
CD [2]: 0.001 µM

— ChEMBL document CHEMBL5528011, “Recent progress and applications of small molecule inhibitors of Keap1-Nrf2 axis for neurodegenerative diseases” (Eur J Med Chem, 2024)
